Experimental data from patent US8412459B2, “Method for determining the allergic potential of a compound” (Vlaamse Instelling Voor Technologisch Onderzoek (VITO), priority 2006, dated 2013).

Tests used:
[1] = a priori known, from literature / in vivo tests; cited from earlier work
CD34-DCs = assay: RT-PCR gene expression in CD34-DCs; classification model (lda + quadratic discriminant) on NINJ, PBEF1, CCR7, CREM, leave-one-compound-out cross validation; details: LFC of NINJ, exposure 6, 12 and 24 h at concentration of EC20, on average 3 individuals, test compound left out of training
Procedure: Expression of every gene was measured after exposure to each of the 9 different compounds (control solvent). For each compound on average 3 different unrelated individuals were used for exposure. On average sample from 3 different individuals were used per compound. Each exposure consisted of 3 exposure times (6, 12 and 24 hours) and three different concentrations were used for each exposure experiment.
To quantify the separation of the two groups one can use e.g. a linear discriminant analysis (lda). This method determines the direction(s) in space (in our case one direction in a 3D space) in which the discrimination between the groups is maximal. […] Mathematically, this projection is a linear combination of the LFC at 6, 12 and 24 hours; this linear combination of LFC's will be called the feature value. On this feature data per gene an F-test can be performed to assess the significance (p-value) of the separation.
One can now set a threshold and only retain those genes with a p-value below it.
To this end the lda was again used to find the two dimensional subspace in which the separation between the two groups is optimal. The variables on the two axes of this space are now a linear combination of the four feature values of the four genes. We will call the x- and y-variable respectively feature value 1 and 2. Note that these feature values are trained by the data.
For this quadratic model, the decision boundary separating the two groups is a conic section, in this case an ellipse.
First one chooses one of the 9 compounds and removes the corresponding measurements from the dataset.
Next one repeats the lda optimization and the construction of a quadratic discriminant model as described in the previous step.
Next the data of the removed compound are fed into the classification model and used to predict the class to which the compound belongs.

| Compound | known sensitizing classification / strength [1] | class predicted by the classification model in cross validation (sensitizer / non-sensitizer) (CD34-DCs) |
| --- | --- | --- |
| C=CCc1ccc(O)c(OC)c1 [Eugenol, 2-Methoxy-4-(2-propenyl)phenol] | weak sensitizing capacity | – |
| tritonX-100 | – | non-sensitizers |
| C[S+](C)[O-] [DMSO, dimethylsulfoxide] | – | non-sensitizers |
| CCC[CH2][Sn]([Cl])([CH2]CCC)[CH2]CCC [TBT, Tributyltin chloride] | – | non-sensitizers |
| O=[N+]([O-])c1ccc(Cl)c([N+](=O)[O-])c1 [DNCB, 1-chloro-2,4-dinitrobenzene] | strong sensitizer | – |
